# ChEMBL document CHEMBL4765473, “PF-07059013: A Noncovalent Modulator of Hemoglobin for Treatment of Sickle Cell Disease” (J Med Chem, 2021)
# Tested on: not listed separately
# Test: Distribution coefficient, log D of the compound by shake flask method
# Assay type: physicochemical
# Conditions: octanol/water
row,Compound,logD
1,C[C@H](Oc1cc2cc(C(N)=O)ccc2nc1N)c1ncc(F)cc1-n1cccn1,1.9
2,C[C@H](Oc1cc2cc(C(N)=O)ccc2nc1N)c1cc(F)c(F)cc1-n1cccn1,3.2
3,C[C@H](Oc1cc2cc(C#N)ccc2nc1N)c1cc(F)c(F)cc1-n1cccn1,4.3
4,C[C@H](Oc1cc2cc(F)cc(F)c2nc1N)c1[nH]c(=O)ccc1-n1cccn1,2.6
5,C[C@H](Oc1cc2cc(F)ccc2nc1N)c1cc(C(=O)O)ccc1-n1cccn1,0.9

# Target: Voltage-gated inwardly rectifying potassium channel KCNH2 (Homo sapiens, UniProt Q12809)
# Test: Binding affinity to human ERG by dofetilide fluorescence polarization binding assay
# Conditions: not given
# Sequence of Voltage-gated inwardly rectifying potassium channel KCNH2 (Q12809 whole entry): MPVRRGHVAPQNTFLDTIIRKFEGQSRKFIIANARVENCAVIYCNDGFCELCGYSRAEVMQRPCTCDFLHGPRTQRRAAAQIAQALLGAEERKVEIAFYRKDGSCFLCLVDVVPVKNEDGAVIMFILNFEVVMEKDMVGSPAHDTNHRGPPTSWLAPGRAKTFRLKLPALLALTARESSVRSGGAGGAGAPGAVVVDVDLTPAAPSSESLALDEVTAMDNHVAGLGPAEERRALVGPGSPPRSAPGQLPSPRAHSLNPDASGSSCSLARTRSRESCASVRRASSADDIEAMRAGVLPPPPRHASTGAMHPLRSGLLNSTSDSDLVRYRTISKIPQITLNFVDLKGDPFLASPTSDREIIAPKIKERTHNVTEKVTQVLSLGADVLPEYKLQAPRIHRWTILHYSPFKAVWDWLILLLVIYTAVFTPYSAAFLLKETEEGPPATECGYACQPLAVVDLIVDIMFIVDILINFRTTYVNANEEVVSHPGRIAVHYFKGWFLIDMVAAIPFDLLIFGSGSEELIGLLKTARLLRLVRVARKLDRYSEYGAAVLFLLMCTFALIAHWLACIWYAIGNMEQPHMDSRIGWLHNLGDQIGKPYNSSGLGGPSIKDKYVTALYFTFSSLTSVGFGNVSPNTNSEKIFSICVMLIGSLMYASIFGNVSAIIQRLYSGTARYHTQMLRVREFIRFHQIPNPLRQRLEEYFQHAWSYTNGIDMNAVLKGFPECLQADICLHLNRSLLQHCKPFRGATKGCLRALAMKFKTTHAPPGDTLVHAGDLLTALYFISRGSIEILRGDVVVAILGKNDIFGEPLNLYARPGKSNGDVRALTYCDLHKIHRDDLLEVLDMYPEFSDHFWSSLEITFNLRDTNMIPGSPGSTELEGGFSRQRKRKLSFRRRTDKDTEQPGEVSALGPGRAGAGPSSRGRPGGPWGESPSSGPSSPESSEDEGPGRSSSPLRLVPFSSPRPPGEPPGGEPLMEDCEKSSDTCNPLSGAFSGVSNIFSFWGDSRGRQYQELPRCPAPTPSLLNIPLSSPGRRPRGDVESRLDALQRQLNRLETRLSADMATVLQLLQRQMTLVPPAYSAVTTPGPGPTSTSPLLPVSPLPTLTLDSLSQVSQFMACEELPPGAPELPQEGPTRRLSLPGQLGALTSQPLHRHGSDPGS
row,Compound,Ki [µM]
1,C[C@H](Oc1cc2cc(C(N)=O)ccc2nc1N)c1ncc(F)cc1-n1cccn1,34
2,C[C@H](Oc1cc2cc(C(N)=O)ccc2nc1N)c1cc(F)c(F)cc1-n1cccn1,4.1
3,C[C@H](Oc1cc2cc(C#N)ccc2nc1N)c1cc(F)c(F)cc1-n1cccn1,19
4,C[C@H](Oc1cc2cc(F)cc(F)c2nc1N)c1[nH]c(=O)ccc1-n1cccn1,63
5,C[C@H](Oc1cc2cc(F)ccc2nc1N)c1cc(C(=O)O)ccc1-n1cccn1,> 40

# Tested on: not listed separately
# Test: Kinetic solubility of the compound
# Assay type: physicochemical
# Conditions: read-out: Kinetic_solubility
row,Compound,solubility kinetic [µg/mL]
1,C[C@H](Oc1cc2cc(C(N)=O)ccc2nc1N)c1ncc(F)cc1-n1cccn1,28.5

# Tested on: not listed separately
# Test: Modulation of HbS (unknown origin) assessed as stabilization of the oxy-state of hemoglobin by measuring conversion from oxyHb (R) to deoxyHb (T) pre-incubated for 1 hr and measured after 120 mins by oxygen dissociation assay
# Parameters: species or system Homo sapiens
# Conditions: not given
row,Compound,IC50 [µM]
1,C[C@H](Oc1cc2cc(C(N)=O)ccc2nc1N)c1ncc(F)cc1-n1cccn1,5.4
2,C[C@H](Oc1cc2cc(C(N)=O)ccc2nc1N)c1cc(F)c(F)cc1-n1cccn1,5.4
3,C[C@H](Oc1cc2cc(C#N)ccc2nc1N)c1cc(F)c(F)cc1-n1cccn1,5.5
4,C[C@H](Oc1cc2cc(F)cc(F)c2nc1N)c1[nH]c(=O)ccc1-n1cccn1,4.3
5,C[C@H](Oc1cc2cc(F)ccc2nc1N)c1cc(C(=O)O)ccc1-n1cccn1,4.9

# Tested on: not listed separately
# Test: Intrinsic clearance in human hepatocytes assessed per million cells
# Assay type: ADME, cell-based, Hepatocyte
# Conditions: read-out: CLH
row,Compound,hepatocyte CLint [µL/min/1e6 cells]
1,C[C@H](Oc1cc2cc(C(N)=O)ccc2nc1N)c1ncc(F)cc1-n1cccn1,< 2
2,C[C@H](Oc1cc2cc(C(N)=O)ccc2nc1N)c1cc(F)c(F)cc1-n1cccn1,14
3,C[C@H](Oc1cc2cc(C#N)ccc2nc1N)c1cc(F)c(F)cc1-n1cccn1,24
4,C[C@H](Oc1cc2cc(F)cc(F)c2nc1N)c1[nH]c(=O)ccc1-n1cccn1,17
5,C[C@H](Oc1cc2cc(F)ccc2nc1N)c1cc(C(=O)O)ccc1-n1cccn1,4

# Target: not listed separately
# Test: Binding affinity to purified human cross-linked HbS by SPR analysis
# Conditions: not given
row,Compound,Kd [nM]
1,C[C@H](Oc1cc2cc(C(N)=O)ccc2nc1N)c1ncc(F)cc1-n1cccn1,183
2,C[C@H](Oc1cc2cc(C(N)=O)ccc2nc1N)c1cc(F)c(F)cc1-n1cccn1,122
3,C[C@H](Oc1cc2cc(C#N)ccc2nc1N)c1cc(F)c(F)cc1-n1cccn1,381
4,C[C@H](Oc1cc2cc(F)cc(F)c2nc1N)c1[nH]c(=O)ccc1-n1cccn1,14
5,C[C@H](Oc1cc2cc(F)ccc2nc1N)c1cc(C(=O)O)ccc1-n1cccn1,100

# Tested on: not listed separately
# Test: Thermodynamic solubility of the compound
# Assay type: physicochemical
# Conditions: read-out: Therm_solubility
row,Compound,solubility thermodynamic [µg/mL]
1,C[C@H](Oc1cc2cc(C(N)=O)ccc2nc1N)c1ncc(F)cc1-n1cccn1,5.3
